Assay results as given in ChEMBL document CHEMBL6153097, “Design, synthesis, and biological evaluation of Flavokavain B derivatives as potent TRF2 inhibitors for the treatment of Osteosarcoma” (Eur J Med Chem, 2025).
Active and inactive are the calls of the source. No cut-off for these calls is given here.

Tests used:
[1] = Acute toxicity in mouse assessed as aspartate transaminase level (AST) level in serum at 30 to 90 mg/kg, po single dose measured for 7 days; format: organism-based; conditions: in vivo, 168 h, dose 30-90 mg/kg, time 7 day
MG-63 [2] = experiment: Downregulation of TRF expression levels in human MG-63 cells measured after 48 hrs by Western blot analysis; format: functional, cell-based; conditions: dose 2-4 µM
U2OS [3] = experiment: Induction of apoptosis in human U2OS cells assessed as late apoptotic cells at 2 uM measured after 48 hrs annexin-V and propidium iodide staining based flow cytometry analysis (reference value: 5.94%); format: functional
MG-63 [4] = experiment: Induction of apoptosis in human MG-63 cells assessed as early apoptotic cells at 2 uM measured after 48 hrs annexin-V and propidium iodide staining based flow cytometry analysis (reference value: 0.66%); format: functional
[5] = Cytotoxicity against […] MLO-Y4 cells assessed as cell viability incubated for 48 hrs by MTT assay; format: toxicity, cell-based; conditions: mouse
[6] = Inhibition of TRF2 expression in human MG-63 cells at 2 uM measured after 48 hrs by Western blot analysis relative to control; format: functional
U2OS [7] = experiment: Induction of DNA damage response in human U2OS cells assessed as telomere dysfunction by measuring telomere length shortening at 2 to 4 uM by Immunofluorescence based FISH assay; format: functional, cell-based; conditions: dose 2-4 µM
MG-63 [8] = experiment: Antitumor activity against human MG-63 cells xenografted in female BALB/c mouse model assessed as reduction in Ki67 level in tumor treated via oral gavage administered once a day for 3 weeks by IHC analysis; format: functional, cell-based; conditions: dose 10-60 mg/kg
MG-63 [9] = experiment: Induction of DNA damage in human MG-63 cells assessed as increase in telomere dysfunction-foci at 4 uM by Immunofluorescence based FISH assay; format: functional, cell-based
MG-63 [10] = experiment: Induction of apoptosis in human MG-63 cells assessed as necrotic cells at 2 uM measured after 48 hrs annexin-V and propidium iodide staining based flow cytometry analysis (reference value: 0.52%); format: functional
U2OS [11] = experiment: Induction of apoptosis in human U2OS cells assessed as early apoptotic cells at 4 uM measured after 48 hrs annexin-V and propidium iodide staining based flow cytometry analysis (reference value: 2.38%); format: functional
MG-63 [12] = experiment: Induction of apoptosis in human MG-63 cells assessed as reduction in colocalization of TRF2 with telomere at 2 to 4 microM by Immunofluorescence based FISH assay; format: functional, cell-based; conditions: dose 2-4 µM
U2OS [13] = experiment: Downregulation of TRF expression levels in human U2OS cells measured after 48 hrs by Western blot analysis; format: functional, cell-based; conditions: dose 2-4 µM
MG-63 [14] = experiment: Induction of apoptosis in human MG-63 cells assessed as late apoptotic cells at 4 uM measured after 48 hrs annexin-V and propidium iodide staining based flow cytometry analysis (reference value: 7.71%); format: functional
MG-63 [15] = experiment: Induction of DNA damage in human MG-63 cells assessed as increase in 53BP1 foci by Immunofluorescence based FISH assay; format: functional, cell-based; conditions: dose 2-4 µM
MG-63 [16] = experiment: Induction of DNA damage in human MG-63 cells assessed as upregulation of gamma-H2AX level by Immunofluorescence based FISH assay; format: functional, cell-based; conditions: dose 2-4 µM
MG-63 [17] = experiment: Induction of DNA damage response in human MG-63 cells assessed as reduction in TRF2 expression by measuring accumulation of telomere-free ends at 2 to 4 uM by FITC/DAPI based Quantitative FISH (Q-FISH) assay; format: functional, cell-based; conditions: dose 2-4 µM
[18] = Acute toxicity in mouse assessed as creatinine (Cr) level in serum at 30 to 90 mg/kg, po single dose measured for 7 days; format: organism-based; conditions: in vivo, 168 h, dose 30-90 mg/kg, time 7 day
U2OS [19] = experiment: Induction of apoptosis in human U2OS cells assessed as early apoptotic cells at 2 uM measured after 48 hrs annexin-V and propidium iodide staining based flow cytometry analysis (reference value: 2.38%); format: functional
U2OS [20] = experiment: Induction of DNA damage in human U2OS cells assessed as upregulation of gamma-H2AX level by Immunofluorescence based FISH assay; format: functional, cell-based; conditions: dose 2-4 µM
U2OS [21] = experiment: Induction of apoptosis in human U2OS cells assessed as necrotic cells at 4 uM measured after 48 hrs annexin-V and propidium iodide staining based flow cytometry analysis (reference value: 2.46%); format: functional
U2OS [22] = experiment: Induction of DNA damage in human U2OS cells assessed as increase in telomere dysfunction-foci at 4 uM by Immunofluorescence based FISH assay; format: functional, cell-based
[23] = Acute toxicity in mouse assessed as change in weight of liver at 30 to 90 mg/kg, po single dose measured for 7 days; format: organism-based; conditions: in vivo, 168 h, dose 30-90 mg/kg, time 7 day
MG-63 [24] = experiment: Induction of apoptosis in human MG-63 cells assessed as viable cells at 4 uM measured after 48 hrs annexin-V and propidium iodide staining based flow cytometry analysis (reference value: 90.7%); format: functional; conditions: read-out: Activity
U2OS [25] = experiment: Induction of apoptosis in human U2OS cells assessed as viable cells at 2 uM measured after 48 hrs annexin-V and propidium iodide staining based flow cytometry analysis (reference value: 89.2%); format: functional; conditions: read-out: Activity
[26] = Inhibition of TRF2 expression in human U2OS cells at 2 uM measured after 48 hrs by Western blot analysis relative to control; format: functional
MG-63 [27] = experiment: Antitumor activity against human MG-63 cells xenografted in female BALB/c mouse model assessed as upregulation of gamma-H2AX in tumor treated via oral gavage administered once a day for 3 weeks by IHC analysis; format: functional, cell-based; conditions: dose 10-60 mg/kg
MG-63 [28] = experiment: Induction of apoptosis in human MG-63 cells assessed as late apoptotic cells at 2 uM measured after 48 hrs annexin-V and propidium iodide staining based flow cytometry analysis (reference value: 7.71%); format: functional
MG-63 [29] = experiment: Induction of apoptosis in human MG-63 cells assessed as reduction in TRF2 foci at 2 to 4 microM by Immunofluorescence based FISH assay; format: functional, cell-based; conditions: dose 2-4 µM

COc1cc(OC)c(C(=O)/C=C/c2cccc(Br)c2)c(OC)c1
Activity [1]: Non-toxic
Activity (MG-63 [2]): Dose-dependent-effect
Activity (U2OS [3]): 18.3%
Activity (MG-63 [4]): 11.2%
IC50 at 48 h [5]: 12.3 µM
inhibition at 2 µM [6]: 54%
Activity (U2OS [7]): Dose-dependent-effect
Activity (MG-63 [8]): Dose-dependent-effect; Compound Showed Significantly Stronger Effect Than Ar And Fkb04
Activity (MG-63 [9]): Active
Activity (MG-63 [10]): 2.69%
Activity (U2OS [11]): 31%
Activity (MG-63 [12]): Active
Activity (U2OS [13]): Dose-dependent-effect
Activity (MG-63 [14]): 61.9%
Activity (MG-63 [15]): Dose-dependent-effect
Activity (MG-63 [16]): Dose-dependent-effect
Activity (MG-63 [17]): Active
Activity [18]: Non-toxic
Activity (U2OS [19]): 12.9%
Activity (U2OS [20]): Dose-dependent-effect
Activity (U2OS [21]): 0.523%
Activity (U2OS [22]): Active
Activity [23]: Non-toxic
viability at 4 µM (MG-63 [24]): 17.5%
viability at 2 µM (U2OS [25]): 67.7%
inhibition at 2 µM [26]: 55.1%
Activity (MG-63 [27]): Dose-dependent-effect; Compound Showed Significantly Stronger Effect Than Ar And Fkb04
Activity (MG-63 [28]): 38.2%
Activity (MG-63 [29]): Active
